In ChEMBL document CHEMBL6092191, “Advancing Cancer Immunotherapy through Engineering New PD-L1 Degraders: A Comprehensive Study from Small Molecules to PD-L1-Specific Peptide-Drug Conjugates” (J Med Chem, 2024) one finds Activity and inhibition in vivo data, which are given here for 1 compound.

The source made the active and inactive calls. No cut-off for these calls is given here.

The nature of series [1]: Toxicity in C57BL/6 mouse model xenografted with […] cells assessed as damage in heart at 29.5 mg/kg, ip administered daily for 8 days by H and E staining based analysis. In kind it is organism-based. The note with it: in vivo, 192 h, time 8 day. (In general: In xenograft studies the graft and the host belong to different species.)
Another series concerns 3T3-L1. Nature of the series: Antiproliferative activity against mouse 3T3-L1 cells at 10 uM incubated for 4 days. The class given is toxicity, cell-based. The note with it: 3t3-l1, 96 h, time 4 day.
A short description of series [2]: Toxicity in C57BL/6 mouse model xenografted with […] cells assessed as damage in lung at 29.5 mg/kg, ip administered daily for 8 days by H and E staining based analysis. The class given is organism-based. The note with it: in vivo, 192 h, time 8 day.
A short description of series [3]: Toxicity in C57BL/6 mouse model xenografted with […] cells assessed as change in BUN level at 29.5 mg/kg, ip administered daily for 8 days. The class given is organism-based, Blood. The settings on record: in vivo, 192 h, time 8 day.
For series [4], the target named is COP9 signalosome complex subunit 5 (Homo sapiens) (UniProt Q92905). Nature of the series: Induction of PD-L1 degradation in human NCI-H460 cells at 10 to 20 uM incubated for 2 days by Western blot analysis. The note with it: dose 10-20 µM, time 2.0 day. In kind it is cell-based. Background: In western blotting, separated proteins are transferred to a membrane and probed.
Sequence of COP9 signalosome complex subunit 5 (Homo sapiens) (Q92905 2-334 limits assumed, one chain of several): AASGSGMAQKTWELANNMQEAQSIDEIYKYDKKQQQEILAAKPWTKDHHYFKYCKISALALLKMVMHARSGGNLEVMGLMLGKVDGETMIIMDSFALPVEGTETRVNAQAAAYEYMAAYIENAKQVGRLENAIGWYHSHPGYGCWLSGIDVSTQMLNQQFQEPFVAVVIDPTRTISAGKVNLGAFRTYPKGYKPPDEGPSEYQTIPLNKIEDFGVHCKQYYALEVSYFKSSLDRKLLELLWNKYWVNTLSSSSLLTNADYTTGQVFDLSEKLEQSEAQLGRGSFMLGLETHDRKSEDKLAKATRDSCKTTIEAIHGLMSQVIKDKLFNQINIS

A short description of series [5]: Antiproliferative activity against human HTori-3 cells at 10 uM incubated for 4 days. The settings on record: htori-3, 96 h, time 4 day. In kind it is toxicity, cell-based.
Series [6] can be described thus: Toxicity in C57BL/6 mouse model xenografted with […] cells assessed as change in AST level at 29.5 mg/kg, ip administered daily for 8 days. The class given is organism-based, Blood. The settings on record: in vivo, 192 h, time 8 day.
Series [7] relates to Lewis lung carcinoma cell line. Nature of the series: Antitumor activity against Lewis lung carcinoma cells xenografted in C57BL/6 mouse model assessed as decrease in Ki-67 level at 29.5 mg/kg, ip administered daily for 8 days by IHC analysis. The class given is functional, organism-based. The settings on record: time 8.0 day.
Series [8] deals with Lewis lung carcinoma cell line. Nature of the series: Antitumor activity against Lewis lung carcinoma cells xenografted in C57BL/6 mouse model at 29.5 mg/kg, ip administered daily for 8 days relative to control. In kind it is functional. The settings on record: 192 h, time 8 day, read-out: TGI.
In series [9] the test system is Lewis lung carcinoma cell line. Nature of the series: Antitumor T-cell immune response in Lewis lung carcinoma cells xenografted in C57BL/6 mouse model assessed as decrease in CD3+ CD4+ population in CD45+ T cells in tumor at 29.5 mg/kg, ip administered daily for 8 days by flow cytometry. The settings on record: time 8.0 day. The class given is functional, organism-based. In general terms: Flow cytometry measures light scatter and fluorescence of single cells or particles in a stream.

In series [10] the test system is Lewis lung carcinoma cell line. Nature of the series: Antitumor T-cell immune response in Lewis lung carcinoma cells xenografted in C57BL/6 mouse model assessed as increase in ratio of CD8+ to CD4+ T cells in tumor at 29.5 mg/kg, ip administered daily for 8 days by flow cytometry. The class given is functional, organism-based. The note with it: time 8.0 day.
The nature of series [11]: Toxicity in C57BL/6 mouse model xenografted with […] cells assessed as change in creatinine level at 29.5 mg/kg, ip administered daily for 8 days. In kind it is organism-based. The note with it: in vivo, 192 h, time 8 day.
Series [12] relates to Lewis lung carcinoma cell line. Put plainly: Antitumor T-cell immune response in Lewis lung carcinoma cells xenografted in C57BL/6 mouse model assessed as increase in CD3+ CD8+ infiltration in CD45+ T cells in tumor at 29.5 mg/kg, ip administered daily for 8 days by flow cytometry. The note with it: time 8.0 day. In kind it is functional, organism-based.
A short description of series [13]: Toxicity in C57BL/6 mouse model xenografted with […] cells assessed as damage in liver at 29.5 mg/kg, ip administered daily for 8 days by H and E staining based analysis. The class given is organism-based. The settings on record: in vivo, 192 h, time 8 day.
A short description of series [14]: Toxicity in C57BL/6 mouse model xenografted with […] cells assessed as change in ALT level at 29.5 mg/kg, ip administered daily for 8 days. The note with it: in vivo, 192 h, time 8 day. The class given is organism-based, Blood.
A short description of series [15]: Toxicity in C57BL/6 mouse model xenografted with […] cells assessed as damage in spleen at 29.5 mg/kg, ip administered daily for 8 days by H and E staining based analysis. The class given is organism-based. The settings on record: in vivo, 192 h, time 8 day.
A further series concerns HEK-293T. Nature of the series: Antiproliferative activity against HEK293T cells at 10 uM incubated for 4 days. The class given is toxicity, cell-based. The note with it: human, 96 h, time 4 day.
A short description of series [16]: Toxicity in C57BL/6 mouse model xenografted with […] cells assessed as damage in kidney at 29.5 mg/kg, ip administered daily for 8 days by H and E staining based analysis. In kind it is organism-based. The settings on record: in vivo, 192 h, time 8 day.
A further series relates to Mus musculus. Nature of the series: In vivo induction of PD-L1 degradation in […] lung carcinoma cells xenografted in C57BL/6 mouse model at 29.5 mg/kg, ip administered daily for 8 days by IHC analysis. The note with it: time 8.0 day. In kind it is functional, organism-based.
The nature of series [17]: Toxicity in C57BL/6 mouse model xenografted with […] cells assessed as obvious body weight change at 29.5 mg/kg, ip administered daily for 8 days. The note with it: in vivo, 192 h, time 8 day. The class given is organism-based.

Consider `COc1cc2c(cc1OC)-c1cc3ccc(OC)c(OCCNC(=O)OCCSSC[C@H](N)C(=O)NCCCCCC(=O)N[C@@H](CC(N)=O)C(=O)N[C@@H](Cc4ccc(O)cc4)C(=O)N[C@@H](CO)C(=O)N[C@@H](CCCCN)C(=O)N4CCC[C@H]4C(=O)N[C@H](C(=O)N[C@@H](CC(=O)O)C(=O)N[C@@H](CCCNC(=N)N)C(=O)N[C@@H](CCC(N)=O)C(=O)N[C@@H](Cc4ccc(O)cc4)C(=O)N[C@@H](Cc4cnc[nH]4)C(=O)N[C@@H](Cc4ccccc4)C(=O)O)[C@@H](C)O)c3c[n+]1CC2.[Cl-]`, for which the Activity entry is listed as “Non-toxic” in [1]; “Non-toxic” in the series with 3T3-L1; “Non-toxic” in series [2]; “Non-toxic” in series [3]; “Active; Comparable To Pmt-O9-1A” in [4]; “Non-toxic” in series [5]. Further, the Activity result (in series [6]; in series [11]; in series [13]; in series [14]; in [15]; in the series on HEK-293T) was “Non-toxic” throughout. Further, the Activity entry in [16] and in [17] was “Non-toxic” in each case. Moreover, the outcome (in series [7]; in [9]; in series [10]; in [12]; with Mus musculus) was Active. In [8], the inhibition in vivo at 29.5 mg/kg came out at 89%.
